Columns and labels:
McyI [1] = biological target: T1, McyI (Anabaena sp. 90, UniProt Q7WRR2); assay: isothermal titration calorimetry; format: binding
McyI [2] = biological target: T1, McyI; assay: reductase assay, absorbance at […] nm; format: biochemical; conditions: 1 mM OAA, 0.2 mM NADPH, 1.6 μM enzyme

T1 sequence (Q7WRR2 1-337 limits assumed): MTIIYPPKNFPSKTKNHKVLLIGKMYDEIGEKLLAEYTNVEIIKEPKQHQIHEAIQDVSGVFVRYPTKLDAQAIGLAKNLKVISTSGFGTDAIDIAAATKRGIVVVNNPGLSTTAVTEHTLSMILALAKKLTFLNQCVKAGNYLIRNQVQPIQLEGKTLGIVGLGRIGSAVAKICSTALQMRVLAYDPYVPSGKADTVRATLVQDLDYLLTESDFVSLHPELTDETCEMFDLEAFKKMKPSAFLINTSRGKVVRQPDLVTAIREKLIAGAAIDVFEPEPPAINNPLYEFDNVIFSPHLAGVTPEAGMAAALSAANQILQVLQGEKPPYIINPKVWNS

NC(=O)C1=CN([C@@H]2O[C@H](COP(=O)(O)OP(=O)(O)OC[C@H]3O[C@@H](n4cnc5c(N)ncnc54)[C@H](OP(=O)(O)O)[C@@H]3O)[C@@H](O)[C@H]2O)C=CC1 [NADPH] showed a Kd (McyI [1]) of 16 µM.

In the case of O=C(O)CC(=O)C(=O)O [OAA], the “reductase assay, absorbance at 340 nm” value (McyI [2]) is reported as “The enzyme, OAA, and the nicotinamide cofactor”.

Reference: PMC11977255 (Communications Biology, 2025)
